Patent US4415574A, “Soluble N2 substituted derivatives of 2,4-diamino 5-benzyl pyrimidine, process for their preparation and medicaments containing them” (S. A. Panmedica, priority 1981, dated 1983)

Tests used:
Format in all cases: cell-based
COLI [1] = assay: Inhibiting minimum concentration (I.M.C.), activity relative to trimethoprime, MULLER HINTON COLI MEDIUM 4; settings: for % activity with respect to the base: ratio of I.M.C. to trimethoprime; for % activity to the base corrected by molecular weight: ratio to trimethoprime
Protocol: (§1) The antibacterial activity of the derivatives according to the invention were tested in vitro by determining the inhibiting minimum concentrations (I.M.C.) on different germs.

COLI [2] = assay: Inhibiting minimum concentration (I.M.C.), activity relative to trimethoprime, OXOIDE COLI MEDIUM 4; settings: for % activity with respect to the base: ratio of I.M.C. to trimethoprime; for % activity with respect to the base corrected by molecular weight: ratio to trimethoprime
Protocol: as §1

BACIL PUMILUS = assay: Inhibiting minimum concentration (I.M.C.), activity relative to trimethoprime, MULLER HINTON BACIL PUMILUS MEDIUM; settings: for % activity with respect to the base: ratio of I.M.C. to trimethoprime; for % activity with respect to the base corrected by molecular weight: ratio to trimethoprime
Protocol: as §1

COc1cc(Cc2cnc(NCS(=O)(=O)O)nc2N)cc(OC)c1OC [Example 1, N2 Methane Sulfonic Acid of 2,4-Diamino 5-(3,4,5-TrimethoxyBenzyl) Pyrimidine]
% activity with respect to the base (COLI [1]): 0.3% | % activity to the base corrected by molecular weight (COLI [1]): 0.4% | % activity with respect to the base (COLI [2]): 17.1% | % activity with respect to the base corrected by molecular weight (COLI [2]): 24% | % activity with respect to the base (BACIL PUMILUS): 0.1%

COc1cc(Cc2cnc(NC(C)S(=O)(=O)O)nc2N)cc(OC)c1OC (centres unmarked) [Example 2, N2 Ethane Sulfonic acid of 2,4-Diamino 5-(3,4,5-Trimethoxy Benzyl) Pyrimidine]
% activity with respect to the base (COLI [1]): 4.3% | % activity to the base corrected by molecular weight (COLI [1]): 6.2% | % activity with respect to the base (COLI [2]): 4% | % activity with respect to the base corrected by molecular weight (COLI [2]): 5.8% | % activity with respect to the base (BACIL PUMILUS): 2.8% | % activity with respect to the base corrected by molecular weight (BACIL PUMILUS): 4%

CCCC(Nc1ncc(Cc2cc(OC)c(OC)c(OC)c2)c(N)n1)S(=O)(=O)O (centres unmarked) [Example 3, N2 Butane Sulfonic Acid of 2,4-Diamino 5-(3,4,5-Trimethoxy Benzyl) Pyrimidine]
% activity with respect to the base (COLI [1]): 4.55% | % activity to the base corrected by molecular weight (COLI [1]): 10.8% | % activity with respect to the base (COLI [2]): 18.35% | % activity with respect to the base corrected by molecular weight (COLI [2]): 28% | % activity with respect to the base (BACIL PUMILUS): 2.9% | % activity with respect to the base corrected by molecular weight (BACIL PUMILUS): 6.8%

COc1cc(Cc2cnc(NC(C(C)C)S(=O)(=O)O)nc2N)cc(OC)c1OC (centres unmarked) [Example 4, N2 (2-Methyl) Propane Sulfonic Acid of 2,4-Diamino 5-(3,4,5-Trimethoxy Benzyl) Pyrimidine]
% activity with respect to the base (COLI [1]): 14.1% | % activity to the base corrected by molecular weight (COLI [1]): 22% | % activity with respect to the base (COLI [2]): 12.9% | % activity with respect to the base corrected by molecular weight (COLI [2]): 20% | % activity with respect to the base (BACIL PUMILUS): 11.8% | % activity with respect to the base corrected by molecular weight (BACIL PUMILUS): 18%

COc1cc(Cc2cnc(NC(C(C)(C)C)S(=O)(=O)O)nc2N)cc(OC)c1OC (centres unmarked) [Example 5, N2 (2,2-Dimethyl) Propane Sulfonic Acid of 2,4-Diamino 5-(3,4,5-Trimethoxy Benzyl) Pyrimidine]
% activity with respect to the base (COLI [1]): 23.3% | % activity to the base corrected by molecular weight (COLI [1]): 37% | % activity with respect to the base (COLI [2]): 18.4% | % activity with respect to the base corrected by molecular weight (COLI [2]): 29% | % activity with respect to the base (BACIL PUMILUS): 19.4% | % activity with respect to the base corrected by molecular weight (BACIL PUMILUS): 30%

CCC(C)C(C)C(Nc1ncc(Cc2cc(OC)c(OC)c(OC)c2)c(N)n1)S(=O)(=O)O (centres unmarked) [Example 6, N2 (2,3-Dimethyl) Pentane Sulfonic Acid of 2,4-Diamino 5-(3,4,5-Trimethoxy Benzyl) Pyrimidine]
% activity with respect to the base (COLI [1]): 15.75% | % activity to the base corrected by molecular weight (COLI [1]): 27% | % activity with respect to the base (COLI [2]): 18.8% | % activity with respect to the base corrected by molecular weight (COLI [2]): 32% | % activity with respect to the base (BACIL PUMILUS): 16.6% | % activity with respect to the base corrected by molecular weight (BACIL PUMILUS): 28%

CCC(CC)C(Nc1ncc(Cc2cc(OC)c(OC)c(OC)c2)c(N)n1)S(=O)(=O)O (centres unmarked) [Example 7, N2 (2-Ethyl) Butane Sulfonic Acid of 2,4-Diamino 5-(3,4,5-Trimethoxy Benzyl) Pyrimidine]
% activity with respect to the base (COLI [1]): 15.5% | % activity to the base corrected by molecular weight (COLI [1]): 25% | % activity with respect to the base (COLI [2]): 14% | % activity with respect to the base corrected by molecular weight (COLI [2]): 23% | % activity with respect to the base (BACIL PUMILUS): 14% | % activity with respect to the base corrected by molecular weight (BACIL PUMILUS): 23%

COc1cc(Cc2cnc(NC(c3ccccc3)S(=O)(=O)O)nc2N)cc(OC)c1OC (centres unmarked) [Example 8, N2 Phenyl Methane Sulfonic Acid of 2,4-Diamino 5-(3,4,5-Trimethoxy Benzyl) Pyrimidine]
% activity with respect to the base (COLI [1]): 10.2% | % activity to the base corrected by molecular weight (COLI [1]): 16.4% | % activity with respect to the base (COLI [2]): 13.3% | % activity with respect to the base corrected by molecular weight (COLI [2]): 21% | % activity with respect to the base (BACIL PUMILUS): 18.4% | % activity with respect to the base corrected by molecular weight (BACIL PUMILUS): 26%

COc1cc(Cc2cnc(NC(c3ccccc3Cl)S(=O)(=O)O)nc2N)cc(OC)c1OC (centres unmarked) [Example 9, N2 (2-Chloro Phenyl) Methane Sulfonic Acid of 2,4-Diamino 5-(3,4,5-Trimethoxy Benzyl) Pyrimidine]
% activity with respect to the base (COLI [1]): 13.3% | % activity to the base corrected by molecular weight (COLI [1]): 23% | % activity with respect to the base (COLI [2]): 14.7% | % activity with respect to the base corrected by molecular weight (COLI [2]): 26% | % activity with respect to the base (BACIL PUMILUS): 14.1% | % activity with respect to the base corrected by molecular weight (BACIL PUMILUS): 25%
